Laboratory results as given in ChEMBL document CHEMBL1833808, “Identification of novel BRAF kinase inhibitors with structure-based virtual screening” (Bioorg Med Chem Lett, 2011).

The compounds below were run against Serine/threonine-protein kinase B-raf (Homo sapiens, UniProt P15056) (assay: Inhibition of BRAF).
Chain of Serine/threonine-protein kinase B-raf (P15056 whole entry): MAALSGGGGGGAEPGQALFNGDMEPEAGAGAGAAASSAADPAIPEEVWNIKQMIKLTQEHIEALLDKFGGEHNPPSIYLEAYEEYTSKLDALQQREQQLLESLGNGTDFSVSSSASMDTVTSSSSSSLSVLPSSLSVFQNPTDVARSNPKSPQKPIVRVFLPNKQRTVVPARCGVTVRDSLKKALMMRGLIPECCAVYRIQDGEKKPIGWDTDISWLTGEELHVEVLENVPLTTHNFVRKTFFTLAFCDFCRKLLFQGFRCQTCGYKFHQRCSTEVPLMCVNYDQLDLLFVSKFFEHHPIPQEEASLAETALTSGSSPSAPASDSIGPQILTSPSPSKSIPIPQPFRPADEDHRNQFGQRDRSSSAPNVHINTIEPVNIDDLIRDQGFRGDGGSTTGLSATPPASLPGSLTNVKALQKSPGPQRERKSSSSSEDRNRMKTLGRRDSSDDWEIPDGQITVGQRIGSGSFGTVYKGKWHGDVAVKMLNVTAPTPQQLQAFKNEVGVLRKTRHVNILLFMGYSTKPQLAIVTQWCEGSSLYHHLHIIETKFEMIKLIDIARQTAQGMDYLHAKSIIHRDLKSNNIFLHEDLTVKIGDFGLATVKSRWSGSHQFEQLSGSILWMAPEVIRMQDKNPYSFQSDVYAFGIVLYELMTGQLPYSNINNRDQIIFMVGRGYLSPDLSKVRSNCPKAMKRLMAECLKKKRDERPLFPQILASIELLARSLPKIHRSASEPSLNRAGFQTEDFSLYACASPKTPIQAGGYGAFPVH

SMILES | Kd [µM]
NC(=O)c1ccc(Nc2nnc(-c3ccc(O)cc3)c3ccccc23)cc1 | 2.1
Cc1ccc(CNC(=O)c2c(N)n(-c3cccc(O)c3)c3nc4ccccc4nc23)cc1 | 12.6
CCOC(=O)c1cccc(Nc2nc(N)nc3[nH]cnc23)c1 | 0.7
Cc1ccc(/C=C/c2nc(N)nc(-c3ccccc3O)n2)o1 | 20
O=C1N/C(=N\c2ccc(O)cc2)S/C1=C\c1c[nH]c2ccccc12 | 18.5
